The source of these data is US11639353B2, “Cyclobutanes- and azetidine-containing mono and spirocyclic compounds as αV integrin inhibitors” (BRISTOL-MYERS SQUIBB COMPANY, priority 2016, dated 2023).

The structures appear in SMILES notation. pIC50: −log10 of the molar value.

The target in the experiment is T1, human αVβ6 (Homo sapiens, UniProt P06756+P18564).
T1 construct: purchased R & D systems 3817-AV
T1 sequence (P06756 31-992 limits assumed): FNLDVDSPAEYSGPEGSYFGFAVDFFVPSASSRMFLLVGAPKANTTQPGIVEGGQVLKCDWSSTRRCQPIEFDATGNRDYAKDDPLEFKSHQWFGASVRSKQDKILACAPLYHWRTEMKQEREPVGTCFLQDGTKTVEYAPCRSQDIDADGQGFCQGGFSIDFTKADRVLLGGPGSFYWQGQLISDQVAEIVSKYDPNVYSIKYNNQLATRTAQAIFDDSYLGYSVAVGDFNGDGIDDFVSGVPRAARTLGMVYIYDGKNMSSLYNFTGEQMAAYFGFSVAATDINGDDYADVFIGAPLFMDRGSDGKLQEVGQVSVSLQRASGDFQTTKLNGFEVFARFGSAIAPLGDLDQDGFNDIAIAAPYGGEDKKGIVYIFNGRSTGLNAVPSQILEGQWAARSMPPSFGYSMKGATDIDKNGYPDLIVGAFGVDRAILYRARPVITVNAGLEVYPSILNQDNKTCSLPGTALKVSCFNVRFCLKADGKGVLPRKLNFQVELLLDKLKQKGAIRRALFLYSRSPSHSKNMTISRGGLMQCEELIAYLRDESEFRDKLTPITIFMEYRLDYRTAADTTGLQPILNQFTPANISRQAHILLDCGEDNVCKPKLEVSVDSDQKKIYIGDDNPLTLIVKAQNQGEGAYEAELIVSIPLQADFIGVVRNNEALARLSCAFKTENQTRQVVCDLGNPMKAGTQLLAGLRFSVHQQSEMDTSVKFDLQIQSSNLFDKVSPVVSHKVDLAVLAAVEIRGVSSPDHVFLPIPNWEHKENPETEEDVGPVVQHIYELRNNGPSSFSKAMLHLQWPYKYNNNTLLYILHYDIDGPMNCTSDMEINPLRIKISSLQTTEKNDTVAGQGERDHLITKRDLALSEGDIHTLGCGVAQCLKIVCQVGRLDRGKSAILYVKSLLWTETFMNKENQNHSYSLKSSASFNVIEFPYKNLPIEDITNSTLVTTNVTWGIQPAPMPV
T1 sequence (P18564 22-707 limits assumed): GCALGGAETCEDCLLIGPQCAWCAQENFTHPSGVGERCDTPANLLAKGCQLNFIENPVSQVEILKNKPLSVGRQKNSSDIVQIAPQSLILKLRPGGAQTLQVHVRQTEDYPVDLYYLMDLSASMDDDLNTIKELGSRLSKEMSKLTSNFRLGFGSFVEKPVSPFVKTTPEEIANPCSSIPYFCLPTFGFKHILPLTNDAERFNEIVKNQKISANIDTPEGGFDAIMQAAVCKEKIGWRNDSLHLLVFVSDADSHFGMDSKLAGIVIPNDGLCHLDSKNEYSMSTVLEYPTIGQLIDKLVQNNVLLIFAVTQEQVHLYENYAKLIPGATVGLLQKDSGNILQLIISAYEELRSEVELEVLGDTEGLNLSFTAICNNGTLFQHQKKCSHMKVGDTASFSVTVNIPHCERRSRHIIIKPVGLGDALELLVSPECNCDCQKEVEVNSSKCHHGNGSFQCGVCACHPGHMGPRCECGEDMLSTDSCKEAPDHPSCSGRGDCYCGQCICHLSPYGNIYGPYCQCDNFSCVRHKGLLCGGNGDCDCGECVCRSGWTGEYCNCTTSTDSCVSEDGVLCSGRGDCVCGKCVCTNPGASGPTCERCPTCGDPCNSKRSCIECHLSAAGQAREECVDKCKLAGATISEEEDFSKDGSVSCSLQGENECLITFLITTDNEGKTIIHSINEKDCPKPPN
The experiment in a line: human αVβ6 HTRF binding assay. Particulars: alternatively SPA-based assay. The gist of the method: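 Biotinylated recombinant human αVβ6 (1.25 nM final) incubated with FITC-fibronectin (5 nM final) 1 h at RT, then streptavidin-terbium (0.625 nM final) added and left overnight at RT in the dark before HTRF reading. Buffer: 20 mM Tris pH 7.4, 1 mM MgCl2, 1 mM MnCl2, 0.01% Tween 20, 0.01% BSA.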
(In general: Time-resolved FRET reads energy transfer from a long-lived donor to a nearby acceptor.)
One may read the pIC50 as −log10 of the IC50, conventionally taken in molar units. A lower pIC50 goes with a high IC50. The compound `O=C(O)CC(c1ccc2nccnc2c1)C1CC(NCCCc2ccc3c(n2)NCCC3)C1` (centres unmarked) [Example 148] had a pIC50 of 8.19.

In turn, `CC(=O)N(CCCc1ccc2c(n1)NCCC2)C1CC(C(CC(=O)O)c2cccc(N3CCOCC3)c2)C1` (centres unmarked) [Example 149, 3-(3-Morpholinophenyl)-3-(3-(N-(3-(5,6,7,8-tetrahydro-1,8-naphthyridin-2-yl)propyl)acetamido)cyclobutyl)propanoic acid] had a pIC50 of 8.34.

`CC(=O)N(CCCc1ccc2c(n1)NCCC2)C1CC(C(CC(=O)O)c2ccc3nccnc3c2)C1` (centres unmarked) [Example 150]: the pIC50 is 8.17.

The compound `COc1ccc([C@H](CC(=O)O)N2CC(CCCCc3ccc4c(n3)NCCC4)C2)cn1` [Example 151] gave a negative logarithm of the IC50 (pIC50) of 8.44.

As to `O=C(O)C[C@@H](c1cc(F)cc(F)c1)N1CC(CCCCc2ccc3c(n2)NCCC3)C1` [Example 152], the pIC50 is 8.85.

`O=C(O)C[C@@H](c1cnc2ccccc2c1)N1CC(CCCCc2ccc3c(n2)NCCC3)C1` [Example 153] had a pIC50 of 8.96.

The compound `O=C(O)C[C@@H](c1ccc(F)c(F)c1)N1CC(CCCCc2ccc3c(n2)NCCC3)C1` [Example 154] had a pIC50 of 8.96.

Regarding `O=C(O)C[C@@H](c1ccc2c(c1)OCC2)N1CC(CCCCc2ccc3c(n2)NCCC3)C1` [Example 155], the pIC50 is 8.82.

With `COc1ncc([C@H](CC(=O)O)N2CC(CCCCc3ccc4c(n3)NCCC4)C2)cn1` [Example 156], the pIC50 was 8.54.

`O=C(O)C[C@@H](c1cncnc1)N1CC(CCCCc2ccc3c(n2)NCCC3)C1` [Example 157] gave a negative-log IC50 (pIC50) of 8.52.

With `COc1ccc([C@H](CC(=O)O)N2CC(C)(CCCCc3ccc4c(n3)NCCC4)C2)cc1F` [Example 158, (S)-3-(3-fluoro-4-methoxyphenyl)-3-(3-methyl-3-(4-(5,6,7,8-tetrahydro-1,8-naphthyridin-2-yl)butyl)azetidin-1-yl)propanoic acid], the pIC50 was 8.96.

For `CC1(CCCCc2ccc3c(n2)NCCC3)CN([C@@H](CC(=O)O)c2cnc3ccccc3c2)C1` [Example 159], the pIC50 is 8.82.

`CC1(CCCCc2ccc3c(n2)NCCC3)CN([C@@H](CC(=O)O)c2cc(F)cc(F)c2)C1` [Example 160] had a pIC50 of 8.89.

In the case of `CC1(CCCCc2ccc3c(n2)NCCC3)CN([C@@H](CC(=O)O)c2ccc(F)c(F)c2)C1` [Example 161], the pIC50 is 9.07.

`O=C(O)C[C@@H](c1cc(F)cc(F)c1)N1CC(F)(CCCCc2ccc3c(n2)NCCC3)C1` [Example 162, (S)-3-(3,5-difluorophenyl)-3-(3-fluoro-3-(4-(5,6,7,8-tetrahydro-1,8-naphthyridin-2-yl)butyl)azetidin-1-yl)propanoic acid] had a pIC50 of 8.70.

`COc1ccc([C@H](CC(=O)O)N2CC(F)(CCCCc3ccc4c(n3)NCCC4)C2)cn1` [Example 163] showed a pIC50 of 8.62.

With `O=C(O)C[C@@H](c1ccc(F)c(F)c1)N1CC(F)(CCCCc2ccc3c(n2)NCCC3)C1` [Example 164], the pIC50 was 8.59.

`COc1ccc([C@H](CC(=O)O)N2CC(F)(CCCCc3ccc4c(n3)NCCC4)C2)cc1F` [Example 165] showed a pIC50 of 8.60.

For the compound `O=C(O)C[C@@H](c1cnc2ccccc2c1)N1CC(F)(CCCCc2ccc3c(n2)NCCC3)C1` [Example 166], the pIC50 was 8.66.

Compound `Cc1ncc([C@H](CC(=O)O)N2CC(F)(CCCCc3ccc4c(n3)NCCC4)C2)cn1` [Example 167] showed a pIC50 of 8.48.

`COc1ccc([C@H](CC(=O)O)N2CC(CCCc3ccc4c(n3)NCCC4)C2)cc1F` [Example 168, (S)-3-(3-Fluoro-4-methoxyphenyl)-3-(3-(3-(5,6,7,8-tetrahydro-1,8-naphthyridin-2-yl)propyl)azetidin-1-yl)propanoic acid]: the pIC50 was 8.70.

Turning to `COc1ccc([C@H](CC(=O)O)N2CC(CCCc3ccc4c(n3)NCCC4)C2)cn1` [Example 169], the pIC50 was 8.40.

`O=C(N[C@@H](CC(=O)N1CC(CCc2ccc3c(n2)NCCC3)C1)C(=O)O)OCC1CCC1` [Example 174, (S)-2-(((cyclobutylmethoxy)carbonyl)amino)-4-oxo-4-(3-(2-(5,6,7,8-tetrahydro-1,8-naphthyridin-2-yl)ethyl)azetidin-1-yl)butanoic acid] had a pIC50 of 7.17.

In the case of `CCCOC(=O)N[C@@H](CC(=O)N1CC(CCc2ccc3c(n2)NCCC3)C1)C(=O)O` [Example 175], the pIC50 is 6.13.

With `O=C(N[C@@H](CC(=O)N1CC(CCc2ccc3c(n2)NCCC3)C1)C(=O)O)OCc1cccc(F)c1` [Example 176], the pIC50 was 6.53.

Take `COc1ccc(C(NC(=O)C2CC(CCc3ccc4c(n3)NCCC4)C2)C(C)(C)C(=O)O)cn1` (centres unmarked) [Example 191]: the negative-log IC50 (pIC50) was 5.37.

Compound `COc1ccc(C(NC(=O)C2CC(CCc3ccc4c(n3)NCCC4)C2)C(C)(C)C(=O)O)cn1` (centres unmarked) [Example 192] had a pIC50 of 5.36.

As to `CCOC(=O)[C@H](CNC(=O)[C@H]1C[C@@H](Cc2ccc3c(n2)NCCC3)C1)NC(=O)OCc1ccccc1` [Example 195, Ethyl (S)-2-(((benzyloxy)carbonyl)amino)-3-(cis-3-((5,6,7,8-tetrahydro-1,8-naphthyridin-2-yl)methyl)cyclobutane-1-carboxamido)propanoate], the pIC50 was 7.89.

For `O=C(N[C@@H](CNC(=O)[C@H]1C[C@@H](Cc2ccc3c(n2)NCCC3)C1)C(=O)O)OCc1ccccc1` [Example 196, (S)-2-(((Benzyloxy)carbonyl)amino)-3-(cis-3-((5,6,7,8-tetrahydro-1,8-naphthyridin-2-yl)methyl)cyclobutane-1-carboxamido)propanoic acid], the pIC50 was 8.29.

`CCCOC(=O)N[C@@H](CNC(=O)[C@H]1C[C@@H](Cc2ccc3c(n2)NCCC3)C1)C(=O)O` [Example 198] had a pIC50 of 8.72.

In turn, `O=C(N[C@@H](CNC(=O)[C@H]1C[C@@H](Cc2ccc3c(n2)NCCC3)C1)C(=O)O)OCC1CCC1` [Example 199] showed a pIC50 of 8.66.

In the case of `Cc1cc(C)c(S(=O)(=O)N[C@@H](CNC(=O)[C@H]2C[C@@H](Cc3ccc4c(n3)NCCC4)C2)C(=O)O)c(C)c1` [Example 200, (S)-3-(cis-3-((5,6,7,8-Tetrahydro-1,8-naphthyridin-2-yl)methyl)-cyclobutane-1-carboxamido)-2-((2,4,6-trimethylphenyl)sulfonamido)-propanoic acid], the pIC50 was 8.42.

Turning to `COc1ccc([C@H](CC(=O)O)NC(=O)[C@H]2C[C@@H](Cc3ccc4c(n3)NCCC4)C2)cc1F` [Example 201, (S)-3-(3-fluoro-4-methoxyphenyl)-3-((1s,3R)-3-((5,6,7,8-tetrahydro-1,8-naphthyridin-2-yl)methyl)cyclobutane-1-carboxamido)propanoic acid], the pIC50 was 8.49.

`COc1ccc(C(CC(=O)O)N2CC3(CC(CCc4ccc5c(n4)NCCC5)C3)C2)cc1F` (centres unmarked) [Example 204, 3-(3-fluoro-4-methoxyphenyl)-3-(6-(2-(5,6,7,8-tetrahydro-1,8-naphthyridin-2-yl)ethyl)-2-azaspiro[3.3]heptan-2-yl)propanoic acid] showed a pIC50 of 8.66.

`COc1ccc(C(CC(=O)O)N2CC3(CC(CCc4ccc5c(n4)NCCC5)C3)C2)cn1` (centres unmarked) [Example 205]: the pIC50 was 8.43.

In turn, `Cc1ncc(C(CC(=O)O)N2CC3(CC(CCc4ccc5c(n4)NCCC5)C3)C2)cn1` (centres unmarked) [Example 206] showed a pIC50 of 8.48.

`Cc1cc(C)n(-c2cccc(C(CC(=O)O)N3CC4(CC(CCc5ccc6c(n5)NCCC6)C4)C3)c2)n1` (centres unmarked) [Example 207] gave a pIC50 of 8.55.

Turning to `COc1ccc(C(CC(=O)O)N2CC3(CC(Cc4ccc5c(n4)NCCC5)C3)C2)cn1` (centres unmarked) [Example 208, 3-(6-methoxypyridin-3-yl)-3-(6-((5,6,7,8-tetrahydro-1,8-naphthyridin-2-yl)methyl)-2-azaspiro[3.3]heptan-2-yl)propanoic acid], the pIC50 was 8.62.

As to `Cc1ncc(C(CC(=O)O)N2CC3(CC(Cc4ccc5c(n4)NCCC5)C3)C2)cn1` (centres unmarked) [Example 209, 3-(2-methylpyrimidin-5-yl)-3-(6-((5,6,7,8-tetrahydro-1,8-naphthyridin-2-yl)methyl)-2-azaspiro[3.3]heptan-2-yl)propanoic acid], the pIC50 was 8.17.

As for `COc1ccc(C(CC(=O)O)N2CC3(CC(Cc4ccc5c(n4)NCCC5)C3)C2)cc1F` (centres unmarked) [Example 210, 3-(3-fluoro-4-methoxyphenyl)-3-(6-((5,6,7,8-tetrahydro-1,8-naphthyridin-2-yl)methyl)-2-azaspiro[3.3]heptan-2-yl)propanoic acid], the pIC50 was 8.25.

Take `Cc1cc(C)n(-c2cccc(C(CC(=O)O)N3CC4(CC(Cc5ccc6c(n5)NCCC6)C4)C3)c2)n1` (centres unmarked) [Example 211, 3-(3-(3,5-dimethyl-1H-pyrazol-1-yl)phenyl)-3-(6-((5,6,7,8-tetrahydro-1,8-naphthyridin-2-yl)methyl)-2-azaspiro[3.3]heptan-2-yl)propanoic acid]: the pIC50 was 8.44.

With `Cc1ncc([C@@H](CC(=O)O)N2CC(COCCc3ccc4c(n3)NCCC4)C2)cn1` [example 128, (R)-3-(2-methylpyrimidin-5-yl)-3-(3-((2-(5,6,7,8-tetrahydro-1,8-naphthyridin-2-yl)ethoxy)methyl)azetidin-1-yl)propanoic acid], the pIC50 was 7.42.

`Cc1ncc([C@H](CC(=O)O)N2CC(COCCc3ccc4c(n3)NCCC4)C2)cn1` [example 129, (S)-3-(2-methylpyrimidin-5-yl)-3-(3-((2-(5,6,7,8-tetrahydro-1,8-naphthyridin-2-yl)ethoxy)methyl)azetidin-1-yl)propanoic acid] showed a pIC50 of 8.49.

`Cc1ncc([C@H](CC(=O)O)N2CC(OCCCc3ccc4c(n3)NCCC4)C2)cn1` [example 131, (S)-3-(2-methylpyrimidin-5-yl)-3-(3-(3-(5,6,7,8-tetrahydro-1,8-naphthyridin-2-yl)propoxy)azetidin-1-yl)propanoic acid] showed a pIC50 of 8.12.
